Patent publication US5227395A, “Anti-platelet aggregating agent” (Nisshin Flour Milling Co., Ltd., priority 1991, dated 1993)

Tested on: platelet aggregation
Assay: In vitro anti-platelet test: inhibition of arachidonic acid-induced platelet aggregation in platelet-rich plasma (Born's turbidimetric method)
Assay type: cell-based, male Japanese white rabbits
Conditions: Oryctolagus cuniculus, 5 min, rabbit PRP, 37° C., read-out: Percentage inhibition of platelet aggregation; for inhibition at 50 µg/mL: 50 μg/ml; for inhibition at 100 µg/mL: 100 μg/ml; for inhibition at 10 µg/mL: 10 μg/ml; for inhibition at 25 µg/mL: 25 μg/ml
Procedure: The anti-platelet aggregating activity of the compounds of the present invention was determined by Born's turbidimetric method (G.V.R. Born, Nature, No. 4832, Jun. 9, 1962, 927-929) using an aggregometer (NKK Hema Tracer 1, PAT-4M, NKK Inc. Japan).
PRP was prepared from male Japanese white rabbits weighing 2.3-4.1 kg. Blood was drawn into syringes containing 3.8% sodium citrate (1/10 volume) and centrifuged at 1000 r.p.m. for 10 min. at room temperature. Platelet poor plasma (PPP) was obtained from the supernatant fraction of the residual blood by centrifugation at 3000 r.p.m. for 10 min. The aggregation (%) was calculated against the turbidity of PPP, which was designated as 100%. 1.2. In vitro anti-platelet test
A 200 μl volume of PRP was placed in the cuvette of the aggregometer and incubated at 37° C. To the cuvette was added 25 μl of 10% methanol solution in physiological saline as a solvent or 25 μl of test drug solution dissolved in the solvent in a predetermined concentration (μg/ml) indicated in Table 2, which was stirred and incubated. 5 min. after, platelet aggregation was induced by the addition of 25 μl of 10^-2 M arachidonic acid. Changes in the percentage of aggregation was recorded on a multirecorder (T626-DS, NKK Inc., Japan). 1-(4' -Methoxybenzoyl)-2-pyrrolidinone (aniracetam) was used as a control compound.
2. Result The percentage inhibition (I) of platelet aggregation by a test drug was calculated from the following equation: […]
in which A is the percentage maximum aggregation for addition of the drug and B is the percentage maximum aggregation for no addition of the drug.

SMILES | inhibition at 50 µg/mL [%] | inhibition at 100 µg/mL [%] | inhibition at 10 µg/mL [%] | inhibition at 25 µg/mL [%]
COc1ccc(C(=O)N2CCCC2=O)cc1 [Aniracetam, 1-(4' -Methoxybenzoyl)-2-pyrrolidinone, reference compound] | 0.4 | 4.1 | – | –
COc1ccccc1OC(=O)N1CCCC1=O [Compound No. 2, 1-(2'-Methoxyphenoxycarbonyl)-2-pyrrolidinone] | 81.6 | 96.2 | 40.9 | 69.8
COc1cccc(OC(=O)N2CCCC2=O)c1 [Compound No. 3, 1-(3'-Methoxyphenoxycarbonyl)-2-pyrrolidinone] | 8.5 | 28.6 | – | –
COc1ccc(OC(=O)N2CCCC2=O)cc1 [Compound No. 4, 1-(4'-Methoxyphenoxycarbonyl)-2-pyrrolidinone] | 95.5 | 98.2 | 51.1 | 72.5
Cc1ccccc1OC(=O)N1CCCC1=O [Compound No. 5, 1-(2'-Methylphenoxycarbonyl)-2-pyrrolidinone] | 50.6 | 92.3 | 5 | 35.8
Cc1cccc(OC(=O)N2CCCC2=O)c1 [Compound No. 6, 1-(3'-Methylphenoxycarbonyl)-2-pyrrolidinone] | 4.7 | 39.7 | – | –
Cc1ccc(OC(=O)N2CCCC2=O)cc1 [Compound No. 7, 1-(4'-Methylphenoxycarbonyl)-2-pyrrolidinone] | 70.6 | 97.7 | 5.8 | 31
COc1cccc(OC)c1OC(=O)N1CCCC1=O [Compound No. 18, 1-(2',6'-Dimethoxyphenoxycarbonyl)-2-pyrrolidinone] | 90.9 | 96.4 | 26 | 64.8
